Reference: US11951197B2, “Use of volatile compounds to modulate the perception of floral muguet” (FIRMENICH SA, priority 2018, dated 2024)

Key:
[1] = target: T1, OR10J5 olfactory receptor (Homo sapiens, UniProt Q8NHC4); assay: Inhibition of LYRAL® (EC80)-induced receptor activity, screen and dose-response; format: cell-based; settings: dose-response in the presence of EC80 LYRAL®
T1 construct: Flag; Rho (rhodopsin-derived tag); expressed in transfected cells
T1 sequence (Q8NHC4 1-309): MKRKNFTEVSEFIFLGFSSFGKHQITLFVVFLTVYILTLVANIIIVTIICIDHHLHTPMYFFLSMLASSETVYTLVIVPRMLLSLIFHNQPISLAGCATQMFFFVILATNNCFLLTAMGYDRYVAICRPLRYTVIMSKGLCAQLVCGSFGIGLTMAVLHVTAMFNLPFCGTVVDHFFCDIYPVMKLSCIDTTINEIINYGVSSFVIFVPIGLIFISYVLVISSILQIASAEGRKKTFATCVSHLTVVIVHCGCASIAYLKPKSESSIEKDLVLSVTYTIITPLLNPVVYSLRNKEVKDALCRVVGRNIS
Description: Using the same cell-based assay described herein, OR10J5 activity inhibition was tested with binary mixtures of LYRAL® and a test compound. Volatile compounds were used to create binary mixtures of each compound with LYRAL® at approximately EC80, a concentration eliciting approximately 80% of full activity level of OR10J5 by itself. An activation cell-based assay was used for the initial inhibitor candidate identification as disclosed in WO2019101813.
The binary mixtures were created by mixing a LYRAL® stock solution with a stock solution of each test compound to a final concentration XXX and 300 μM, respectively. Stock solutions were made of compounds dissolved in pure DMSO. Each mixture was presented to a cell line expressing the OR10J5 olfactory receptor. Similar to the enhancement screening conditions, the final concentration of DMSO in each binary mixture was 0.1%, and had no visible effect on the cells. The resulting activation was measured and compared to LYRAL® alone (defining the activity baseline of the assay, ˜EC80). […] The quality of the HTS process was determined and the window (activity range between EC80 and the DMSO baseline) variability and signal reliability were assessed by calculating the Z′ value of each plate.
Candidate inhibitors identified were tested in a dose-response inhibition experiments to confirm the inhibition properties of the potential candidates. The dose-response curve in the presence of EC80 LYRAL® concentration (generating 80% activity on OR10J5) was assessed for dose-dependent activity level decrease. […] Both potency and efficacy of the confirmed inhibitors were evaluated by calculating their half-maximal inhibition concentration (IC50) relative to EC80 LYRAL and the amount of inhibition (Span), respectively. The IC50 values indicate the inhibition level with respect to the potency. The Span values indicate the inhibition level with respect to the inhibition efficacy. The IC50 values are used to rank order the compounds from strongest to weakest inhibitors of OR10J5 (FIG. 9a-d).

OR10J5 [2] = target: T2, OR10J5 (Homo sapiens, UniProt Q8NHC4); assay: LYRAL® dose-response with serial enhancer concentrations, allosteric EC50 shift model; format: cell-based
T2 construct: Flag; Rho (rhodopsin-derived tag); expressed in transfected cells
T2 sequence (Q8NHC4 1-309): T1 sequence (Q8NHC4 1-309)
Description: Functional dose-response experiments were performed to reveal the allosteric nature of the interaction between 3-(1,3-benzodioxol-5-yl)-2-methylpropanal, 3-(4-methylcyclohex-3-en-1-yl)butanal, 2,6-dimethylhept-5-enal and heptanal and OR10J5. The level of enhancement of OR10J5's activation was evaluated at distinct concentrations of each enhancer. Using the same cell-based assay described earlier, dose response curves of OR10J5 to LYRAL® in the presence of serial concentrations of the enhancers spanning from 0 to 600 μM were performed, see FIG. 5. The curves were obtained by applying the simplified Allosteric EC50 shift effect equation (available in Prism7) derived from the ternary complex interaction model. The enhancement levels recorded were not linearly dependent on the concentration of the enhancer, and the following key parameters values for α (the cooperativity factor) and KB (the equilibrium dissociation constant of the enhancer) were obtained from the model for each enhancer: 3-(1,3-benzodioxol-5-yl)-2-methylpropanal, α=6.3 and KB=10 μM; 3-(4-methylcyclohex-3-en-1-yl)butanal, α=7.5 and KB=15 μM; 2,6-dimethylhept-5-enal, α=4.1 and KB=16 μM; and heptanal; α=3.2 and KB=51 μM. α>1 is indicative of positive allosteric modulation.

OR10J5 [3] = target: T2, OR10J5; assay: (+−)-2,5-dimethyl-2-indanmethanol dose-response with a steady concentration of test compound; format: cell-based; settings: OR10J5; for EC50 fold shift of (+−)-2,5-dimethyl-2-indanmethanol: agonist + steady concentration of compound vs agonist alone
Description: OR10J5 activity enhancement was tested with an additional agonist and with one of the test compounds and conditions described in the Examples above. Dose response curves to (+−)-2,5-dimethyl-2-indanmethanol was obtained in the presence of a steady concentration of the test compound and compared to a dose-response curve of the agonist alone. The resulting enhancement was quantified by means of EC50-fold shift (potency increase) and the efficacy span ratio (efficacy increase) as described above.

[4] = target: T1, OR10J5 olfactory receptor; assay: Dose-response confirmation of enhancer candidates, alone and with EC20 LYRAL®; format: cell-based; settings: response to LYRAL® raised beyond EC20 without measurable intrinsic activity
Description: (§1) A dose response curve showing the activation of OR10J5 in response to the floral muguet compound 3-(4-hydroxy-4-methylpentyl)cyclohex-3-ene-1-carbaldehyde, 4-(4-hydroxy-4-methylpentyl)cyclohex-3-ene-1-carbaldehyde or a mixture thereof (sold under the tradename LYRAL®, hereinafter referred to as “LYRAL®”) is shown in FIG. 1. Using a cell-based assay, OR10J5 activity was tested in a HEK293T cell line wherein the endogenous chaperone RTP1 gene has been activated and the odorant receptor chaperone was expressed according to the methods disclosed in International Patent Application Publication No. WO2016/201153 A1. The Flag-Rho-tagged receptor was co-transfected with the olfactory canonical G-protein Golf and was exposed to a binary mixture of a single concentration of LYRAL® and a test compound.
(§2) A library of volatile compounds was used to create binary mixtures of each compound with LYRAL® at approximately EC20, a concentration eliciting only approximately 20% of full activity level of OR10J5 by itself. An activation cell-based assay was used for the initial enhancer candidate identification as disclosed in WO2019122236. Single binary mixture-induced receptor activity was detected by measuring the cAMP increase in the cytosol using an HTRF (Homogenous Time-Resolved Fluorescence unit) based kit (CisBio, cAMP dynamic 2 kit, 62AM4PEJ).
The 37 candidates remaining in Table 2 were identified and were tested in two parallel dose-response experiments to confirm the true enhancement properties of the potential candidates. First, a dose-response of each individual candidate was performed to determine if it was an agonist by itself. Second, the same candidate dose-response curve in the presence of EC20 LYRAL® concentration (generating 20% activity on OR10J5) was assessed for activity level increase.

OR10J5 [5] = target: T2, OR10J5; assay: LYRAL® dose-response with a steady concentration of test compound (EC50-fold shift); format: cell-based; settings: LYRAL® + steady concentration of compound vs LYRAL® alone
Description: as §1
(§3) LYRAL® enhancement specificity was tested on compounds that were structurally similar to enhancers identified. Dose response curves to LYRAL® were obtained in the presence of a steady concentration of a test compound and compared to a dose-response curve of LYRAL® alone. The resulting enhancement was quantified by means of EC50-fold shift (potency increase) and the efficacy span ratio (efficacy increase).
The EC50-fold shift was obtained by dividing the EC50 of LYRAL®+compound by the reference EC50 of LYRAL® alone. […]

Olfr16 = target: T3, Olfr16 (Mus musculus, UniProt Q62007); assay: as above; format: cell-based; settings: Olfr16 (mouse ortholog); LYRAL® + steady concentration of compound vs LYRAL® alone
T3 construct: expressed in transfected cells
T3 sequence (Q62007 1-309): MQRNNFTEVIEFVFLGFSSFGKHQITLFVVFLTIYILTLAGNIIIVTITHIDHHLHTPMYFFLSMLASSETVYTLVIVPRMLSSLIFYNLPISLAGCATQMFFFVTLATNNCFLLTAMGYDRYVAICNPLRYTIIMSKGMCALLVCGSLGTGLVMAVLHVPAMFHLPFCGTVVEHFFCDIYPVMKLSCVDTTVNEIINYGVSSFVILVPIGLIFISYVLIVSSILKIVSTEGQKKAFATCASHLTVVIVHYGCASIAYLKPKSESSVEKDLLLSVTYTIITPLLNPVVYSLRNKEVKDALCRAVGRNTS
Description: as §3
The EC50-fold shift was obtained by dividing the EC50 of LYRAL®+compound by the reference EC50 of LYRAL® alone. The span ratio was obtained by dividing the span of LYRAL®+compound by the reference span of LYRAL® alone.

[6] = Odor detection threshold (ODT) forced-choice triangle tests for LYRAL® with background odor; format: in vivo, human; settings: 28 panelists; enhancer at 0.1% vs neutral compound at 7%; main effect of Material p=0.03, interaction p=0.052
Description: Sensitivity of human individuals to LYRAL® was evaluated by performing an odor detection threshold (ODT) test. The ODT test consisted of identifying the concentration for which 50%, preferably 66%, of the panelists are able to determine which of three containers contains the target compound LYRAL® in a series of forced-choice triangle tests. Two tests were performed to calculate the ODT in mixtures containing LYRAL® plus a perceivable background odor of chemically similar molecules a) the enhancer, 3-(4-methylcyclohex-3-en-1-yl)butanal and b) the non-enhancing volatile compound, 3-[(1R)-4-methyl-3-cyclohexen-1-yl]-1-butanol. These two molecules are chemically similar. The perceived intensity of the two background odors was monitored to be isointense to control that the responses recorded answer were intensity independent.
28 panelists were given a series of triangle tests with increasing concentrations of LYRAL® in the presence of 3-(4-methylcyclohex-3-en-1-yl)butanal at a concentration of 0.1%. Within each triangle test, the three samples contained 3-(4-methylcyclohex-3-en-1-yl)butanal at 0.1% and one sample also contained LYRAL®. 28 panelists were given a series of triangle tests with increasing concentration of Lyral® in the presence of 3-[(1R)-4-methyl-3-cyclohexen-1-yl]-1-butanol at a concentration of 7%. […]

[7] = target: T1, OR10J5 olfactory receptor; assay: Single-point binary mixture enhancement screen (LYRAL® at about EC20 + test compound), cAMP HTRF; format: cell-based; settings: binary mixture of 4.6 μM LYRAL® and 300 μM test compound, HEK293T
Description: A dose response curve showing the activation of OR10J5 in response to the floral muguet compound 3-(4-hydroxy-4-methylpentyl)cyclohex-3-ene-1-carbaldehyde, 4-(4-hydroxy-4-methylpentyl)cyclohex-3-ene-1-carbaldehyde or a mixture thereof (sold under the tradename LYRAL®, hereinafter referred to as “LYRAL®”) is shown in FIG. 1. Using a cell-based assay, OR10J5 activity was tested in a HEK293T cell line wherein the endogenous chaperone RTP1 gene has been activated and the odorant receptor chaperone was expressed according to the methods disclosed in International Patent Application Publication No. WO2016/201153 A1. […]
as §2, with “An activation cell-based assay was used for the initial enhancer candidate identification as disclosed in WO2019122236.” left out, “62AM4PEJ). […]” for “62AM4PEJ).”
The resulting activation was then measured and compared to LYRAL® alone (defining the baseline of the enhancement assay). The quality of the HTS process was determined and the window variability and signal reliability were assessed by calculating the Z′ value of each plate. […]

SMILES: CCOC(=O)C(=O)C(C)CC (racemic) [(+−)-ethyl 3-methyl-2-oxopentanoate]
- inhibition of the OR10J5 response to LYRAL® [1]: decreased the response

SMILES: CC(C=O)Cc1ccc2c(c1)OCO2 (stereo not drawn) [3-(1,3-benzodioxol-5-yl)-2-methylpropanal]
- Kb (OR10J5 [2]): 10 µM
- α (cooperativity factor) (OR10J5 [2]; enhancer 0 to 600 μM, allosteric EC50 shift equation (Prism7), α>1 indicates positive allosteric modulation): 6.3
- EC50 fold shift of (+−)-2,5-dimethyl-2-indanmethanol (OR10J5 [3]): 8.6 fold
- efficacy increase (span ratio) of (+−)-2,5-dimethyl-2-indanmethanol (OR10J5 [3]; within the dynamic range of the dose response): 1.7 fold
- enhancement of OR10J5 LYRAL® activation (true enhancer) [4]: potent enhancement
- EC50 fold shift of LYRAL® (potency increase) (OR10J5 [5]): 9.2 fold
- EC50 fold shift of LYRAL® (potency increase) (Olfr16): 5 fold

SMILES: CC1=CC[C@H](C(C)CC=O)CC1 (stereo partly drawn) [3-(4-methylcyclohex-3-en-1-yl)butanal]
- proportion of correct LYRAL® detection responses with increasing LYRAL® concentration [6]: proportion of correct responses increased at a higher rate
- enhancement of OR10J5 LYRAL® activation (true enhancer) [4]: potent enhancement

SMILES: CCCc1ccc2c(c1)OCC(=O)CO2 [7-propyl-2H,4H-1,5-benzodioxepin-3-one]
- inhibition of the OR10J5 response to LYRAL® [1]: decreased the response

SMILES: C=C1CC[C@@H]2O[C@]2(C)CC[C@@H]2[C@@H]1CC2(C)C [(−)-(1R,4R,6S,10S)-4,12,12-trimethyl-9-methylene-5-oxatricyclo[8.2.0.0^4,6]dodecane]
- inhibition of the OR10J5 response to LYRAL® [1]: decreased the response

SMILES: O=Cc1ccc2c(c1)OCO2 [benzo[d][1,3]dioxole-5-carbaldehyde, reference compound]
- EC50 fold shift of (+−)-2,5-dimethyl-2-indanmethanol (OR10J5 [3]): 2.0 fold
- EC50 fold shift of LYRAL® (potency increase) (OR10J5 [5]): 1.8 fold
- EC50 fold shift of LYRAL® (potency increase) (Olfr16): 1.5 fold

SMILES: C[C@@H]1C/C=C\CCCCCCCCCC(=O)C1 [compound 2]
- OR10J5 olfactory receptor agonists among screen hits [7]: agonists

SMILES: COC(=O)c1ccccc1/N=C/c1ccccc1 [compound 15]
- OR10J5 olfactory receptor agonists among screen hits [7]: agonists

SMILES: CC1=CCCC2(C)OC2CCC(C)=CCC1 (stereo not drawn) [trimethyl-13-oxabicyclo-[10.1.0]-trideca-4,8-diene]
- inhibition of the OR10J5 response to LYRAL® [1]: decreased the response
